Reference: US20180215787A1, “Chromogenic And Fluorogenic Peptide Substrates For The Detection Of Serine Protease Activity” (RUPRECHT-KARLS-UNIVERSITÄT HEIDELBERG, priority 2015, published 2018)

Key:
[1] = cited from earlier work
factor Xa [2] = molecular target: T1, factor Xa (Bos taurus, UniProt P00743); assay: Kinetic measurements (Michaelis-Menten) of factor Xa substrates; assay type: biochemical
Method: (§1) Commercial substrate 1a, depicted in FIG. 2, was used as reference in the kinetic measurements. The kinetic values KM, kcat and kcat/KM were established for the fluorogenic compound 1 using Human Thrombin. In order to compare the results of 1 and 1a, the absorption of the released chromophores was measured during the enzymatic reaction (570 nm for resorufin and 380 nm for p-nitroaniline).
(§2) The same parameters were also determined for 1 by measuring the emission of resorufin at 583 nm and similar values to the ones obtained from absorption were found (FIG. 5A).
A similar conjugate, with the same peptide sequence, but having p-nitroanilide as reporter, has a much higher KM (40 μM) and the enzyme has poorer catalytic efficiency for this substrate (2.7×10^6 M^−1 s^−1). Thus, compound 2 of the present invention performs better than the best factor Xa substrate so far reported.
The kinetic parameters were determined as described for the other substrates (cf. Example 4). The results of Michaelis-Menten kinetic is depicted in FIG. 13.

thrombin [3] = molecular target: T2, thrombin (Homo sapiens, UniProt P00734); assay: Fluorescence assay to evaluate specificity of compound 1 toward thrombin; assay type: biochemical; settings: Compound 1 5 μM, proteases 100 pM
Method: (§3) The enzymatic reactions were carried out in 50 mM Tris buffer pH 8.3 and 130 mM NaCl.
(§4) the specificity of Compound 1 of the present invention toward thrombin was tested. Compound 1 (5 μM) was incubated in the presence of thrombin (100 pM) and some possible interfering proteases and proteins, like trypsin, factor Xa, myoglobin, cytochrome C and BSA (100 pM). The increase of fluorescence in response to factor Xa, myoglobin, cytochrome C and BSA was negligible (FIG. 6). […] A commercial assay can detect 1 pM thrombin, by fishing it out of plasma samples using microwells coated with DNA-aptamer. The AMC-based substrate is converted by thrombin to fluorescent product after the enrichment step. The fluorescence assay according to the present invention allowed the detection of thrombin at the concentrations as low as 0.5 pM in water solution (FIG. 7), which was achieved without any enrichment step.

trypsin = assay: Fluorescence specificity assay, trypsin; assay type: biochemical; settings: Compound 1 5 μM, trypsin 100 pM
Method: as §3, §4

factor Xa [4] = molecular target: T1, factor Xa; assay: Fluorescence specificity assay, factor Xa; assay type: biochemical; settings: Compound 1 5 μM, factor Xa 100 pM
Method: as §3, §4

myoglobin = molecular target: T3, myoglobin (Homo sapiens, UniProt P02144); assay: Fluorescence specificity assay, myoglobin; assay type: biochemical; settings: Compound 1 5 μM, myoglobin 100 pM
T3 sequence (P02144 1-154): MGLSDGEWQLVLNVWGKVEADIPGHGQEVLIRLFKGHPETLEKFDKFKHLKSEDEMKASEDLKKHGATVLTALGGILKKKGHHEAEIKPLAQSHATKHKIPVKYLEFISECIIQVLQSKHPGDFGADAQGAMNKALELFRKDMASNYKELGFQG
Method: as §3, §4

cytochrome C = cytochrome C (Homo sapiens, UniProt P99999); assay: Fluorescence specificity assay, cytochrome C; assay type: biochemical; settings: Compound 1 5 μM, cytochrome C 100 pM
Method: as §3, §4

BSA = BSA (Bos taurus, UniProt P02769); assay: Fluorescence specificity assay, BSA; assay type: biochemical; settings: Compound 1 5 μM, BSA 100 pM
Method: as §3, §4

thrombin [5] = molecular target: T2, thrombin; assay: Fluorescence assay for determination of thrombin in water (LOD); assay type: biochemical; settings: in water solution, without enrichment step
Method: The mean change of resorufin fluorescence dF/min is plotted versus the corresponding thrombin concentration (in pM).
as §4

[6] = Stability toward spontaneous hydrolysis in thrombin buffer; assay type: physicochemical; settings: incubation with thrombin buffer (Tris pH 8.3), 24° C.
Method: A. Absorption spectra of resorufin and compound 1 of the present invention; B. Enzymatic hydrolysis of 1 (5 μM) in the presence of thrombin (100 pM) with Tris buffer pH 8.3 (λex=570 nm; λem=583 nm) at 24° C.; inset: full emission spectra recorded after 60 min, with and without enzyme; C.
The photophysical properties of compound 1 of the present invention, as well as its enzymatic conversion to fluorescent product resorufin were investigated. […] It also has a negligible emission, if exited either at its maxima (480 nm) or at resorufin maxima (570 nm).

thrombin [7] = molecular target: T2, thrombin; assay: Kinetic measurements with Human Thrombin; assay type: biochemical; settings: absorption of released chromophore, 570 nm
Method: as §1, §2

[8] = factor Xa substrate, Michaelis-Menten kinetic

T1 sequence (P00743 234-492 limits assumed): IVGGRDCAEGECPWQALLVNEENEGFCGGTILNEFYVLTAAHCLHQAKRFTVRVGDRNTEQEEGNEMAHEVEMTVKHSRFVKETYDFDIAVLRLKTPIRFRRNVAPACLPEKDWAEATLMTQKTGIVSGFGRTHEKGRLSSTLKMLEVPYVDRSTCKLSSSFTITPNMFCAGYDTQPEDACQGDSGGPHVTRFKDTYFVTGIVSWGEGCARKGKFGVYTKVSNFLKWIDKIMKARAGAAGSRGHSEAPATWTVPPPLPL
T1 sequence (P00743 41-180 partner limits assumed): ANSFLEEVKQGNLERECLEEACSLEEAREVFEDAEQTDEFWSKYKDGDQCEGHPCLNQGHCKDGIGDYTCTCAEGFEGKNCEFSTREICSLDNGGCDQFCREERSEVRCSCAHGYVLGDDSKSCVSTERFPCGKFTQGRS
Sequence of cytochrome C (P99999 whole entry, species assumed): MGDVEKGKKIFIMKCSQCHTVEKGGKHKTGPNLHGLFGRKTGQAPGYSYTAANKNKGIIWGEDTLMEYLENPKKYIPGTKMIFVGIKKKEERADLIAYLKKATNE
Sequence of BSA (P02769 25-607): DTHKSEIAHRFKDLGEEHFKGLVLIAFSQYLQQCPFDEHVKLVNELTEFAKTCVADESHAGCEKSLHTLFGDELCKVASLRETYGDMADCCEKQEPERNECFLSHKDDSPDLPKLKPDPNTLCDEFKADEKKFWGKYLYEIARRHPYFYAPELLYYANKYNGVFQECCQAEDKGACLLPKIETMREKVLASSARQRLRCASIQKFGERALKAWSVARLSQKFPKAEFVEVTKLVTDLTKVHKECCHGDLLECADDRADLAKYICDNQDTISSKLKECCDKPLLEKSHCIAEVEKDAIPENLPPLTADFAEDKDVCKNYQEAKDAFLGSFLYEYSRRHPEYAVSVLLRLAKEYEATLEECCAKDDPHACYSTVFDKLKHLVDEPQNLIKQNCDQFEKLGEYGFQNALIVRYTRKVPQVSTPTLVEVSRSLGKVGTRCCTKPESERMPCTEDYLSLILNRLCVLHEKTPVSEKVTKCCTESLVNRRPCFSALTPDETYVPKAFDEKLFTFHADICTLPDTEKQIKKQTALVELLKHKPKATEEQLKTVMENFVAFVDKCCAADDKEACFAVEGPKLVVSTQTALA

O=c1ccc2nc3ccc(O)cc3oc-2c1 [resorufin, 7-Hydroxy-3H-phenoxazin-3-one]
pKa [1]: ~6.0

BzIs-D-Arg-Gly-Arg-PABA-Res [Compound 2]
KM value (in words) (factor Xa [2]; FIG. 5B): very low KM value | catalytic efficiency (in words) (factor Xa [2]; FIG. 5B): excellent catalytic efficiency | turnover number kcat (in words) (factor Xa [2]; FIG. 5B): relatively good turnover number

Cbz-D-Arg-Gly-Arg-PABA-Res [Compound 2a]
Km (factor Xa [2]; [8]): 5.5 µM | kcat (factor Xa [2]; [8]): 4.9 s⁻¹

D-Phe-Pro-Arg-PABA-Res [Compound 1]
specificity for thrombin compared to factor Xa (thrombin [3]): 400 times | selectivity for thrombin over trypsin (thrombin [3]; 50 mM Tris pH 8.3, 130 mM NaCl): 7.5 fold | hydrolysis by trypsin (rate compared to thrombin) (trypsin): slower rate compared to thrombin | increase of fluorescence in response to factor Xa (factor Xa [4]): negligible | increase of fluorescence in response to myoglobin (myoglobin): negligible | increase of fluorescence in response to cytochrome C (cytochrome C): negligible | increase of fluorescence in response to BSA (BSA): negligible | lowest detectable thrombin concentration (thrombin [5]): 0.5 pM | spontaneous hydrolysis / chemical stability [6]: no spontaneous hydrolysis | thrombin turnover compared with commercial substrate 1a (thrombin [7]): did not suffer at all
